Measured values taken from the NIST ThermoML archive (doi:10.1021/acs.jced.6b00542).
Numbers after ± are expanded uncertainties.

Assay: xn = mol fraction of the nth substance listed
Conditions: for speed of sound: 100 kPa, Frequency=3 MHz, Sing-around technique in a fixed-path interferometer; for speed of sound / viscosity / mass density: Liquid; for viscosity / mass density: 102 kPa; for viscosity: Concentric cylinders viscometry; for mass density: Vibrating tube method; for surface tension liquid-gas: 294.5 K, Pendant drop shape

CCCCc1ccccc1 [butylbenzene] + CCCCCCCCCCCC
Conditions | mass density [kg/m3] | speed of sound [m/s] | viscosity [mPa·s]
293.15 K, x1 = 0.1241 | 758.28 ± 0.15 | 1300.2 ± 1 | 1.38 ± 0.01
293.15 K, x1 = 0.2414 | 768.11 ± 0.15 | 1302.8 ± 0.9 | 1.31 ± 0.01
293.15 K, x1 = 0.3524 | 778.18 ± 0.14 | 1306.4 ± 0.9 | 1.24 ± 0.01
293.15 K, x1 = 0.4583 | 788.6 ± 0.14 | 1310.3 ± 0.9 | 1.19 ± 0.01
293.15 K, x1 = 0.5593 | 799.56 ± 0.13 | 1315.4 ± 0.9 | 1.15 ± 0.01
293.15 K, x1 = 0.6552 | 810.7 ± 0.13 | 1321.3 ± 0.9 | 1.11 ± 0.01
293.15 K, x1 = 0.7575 | 823.88 ± 0.12 | 1328.6 ± 0.9 | 1.08 ± 0.01
293.15 K, x1 = 0.8349 | 834.67 ± 0.12 | 1335.5 ± 0.9 | 1.06 ± 0.01
293.15 K, x1 = 0.9194 | 847.33 ± 0.12 | 1343.9 ± 0.9 | 1.04 ± 0.01
293.15 K, x1 = 1 | 860.51 ± 0.11 | 1353.7 ± 0.9 | 1.05 ± 0.01
303.15 K, x1 = 0.1241 | 750.96 ± 0.16 | 1262 ± 1 | 1.17 ± 0.01
303.15 K, x1 = 0.2414 | 760.73 ± 0.15 | 1264.8 ± 0.9 | 1.12 ± 0.01
303.15 K, x1 = 0.3524 | 770.74 ± 0.14 | 1268.4 ± 0.9 | 1.07 ± 0.01
303.15 K, x1 = 0.4583 | 781.11 ± 0.14 | 1272.3 ± 0.9 | 1.03 ± 0.01
303.15 K, x1 = 0.5593 | 791.97 ± 0.13 | 1277.3 ± 0.9 | 0.996 ± 0.007
303.15 K, x1 = 0.6552 | 803.03 ± 0.13 | 1283.1 ± 0.9 | 0.968 ± 0.007
303.15 K, x1 = 0.7575 | 816.12 ± 0.12 | 1290.4 ± 0.9 | 0.941 ± 0.007
303.15 K, x1 = 0.8349 | 826.84 ± 0.12 | 1297 ± 0.9 | 0.925 ± 0.007
303.15 K, x1 = 0.9194 | 839.4 ± 0.12 | 1305.4 ± 0.9 | 0.909 ± 0.007
303.15 K, x1 = 1 | 852.49 ± 0.11 | 1314.9 ± 0.9 | 0.91 ± 0.007
313.15 K, x1 = 0.1241 | 743.61 ± 0.16 | 1224.4 ± 0.9 | 1.01 ± 0.01
313.15 K, x1 = 0.2414 | 753.32 ± 0.15 | 1227.2 ± 0.9 | 0.968 ± 0.007
313.15 K, x1 = 0.3524 | 763.26 ± 0.15 | 1230.8 ± 0.9 | 0.931 ± 0.007
313.15 K, x1 = 0.4583 | 773.56 ± 0.14 | 1234.7 ± 0.9 | 0.9 ± 0.007
313.15 K, x1 = 0.5593 | 784.35 ± 0.14 | 1239.7 ± 0.9 | 0.873 ± 0.007
313.15 K, x1 = 0.6552 | 795.32 ± 0.13 | 1245.4 ± 0.9 | 0.85 ± 0.007
313.15 K, x1 = 0.7575 | 808.33 ± 0.13 | 1252.5 ± 0.9 | 0.829 ± 0.007
313.15 K, x1 = 0.8349 | 818.96 ± 0.12 | 1259.1 ± 0.9 | 0.816 ± 0.006
313.15 K, x1 = 0.9194 | 831.44 ± 0.12 | 1267.3 ± 0.9 | 0.804 ± 0.006
313.15 K, x1 = 1 | 844.43 ± 0.11 | 1276.6 ± 0.9 | 0.801 ± 0.006
323.15 K, x1 = 0.1241 | 736.23 ± 0.16 | 1187.2 ± 0.9 | 0.879 ± 0.007
323.15 K, x1 = 0.2414 | 745.87 ± 0.15 | 1190 ± 0.9 | 0.846 ± 0.007
323.15 K, x1 = 0.3524 | 755.75 ± 0.15 | 1193.7 ± 0.9 | 0.817 ± 0.007
323.15 K, x1 = 0.4583 | 765.97 ± 0.14 | 1197.6 ± 0.9 | 0.793 ± 0.006
323.15 K, x1 = 0.5593 | 776.69 ± 0.14 | 1202.5 ± 0.9 | 0.771 ± 0.006
323.15 K, x1 = 0.6552 | 787.58 ± 0.13 | 1208.1 ± 0.9 | 0.753 ± 0.006
323.15 K, x1 = 0.7575 | 800.5 ± 0.13 | 1215.2 ± 0.9 | 0.736 ± 0.006
323.15 K, x1 = 0.8349 | 811.06 ± 0.13 | 1221.6 ± 0.8 | 0.725 ± 0.006
323.15 K, x1 = 0.9194 | 823.44 ± 0.12 | 1229.7 ± 0.8 | 0.716 ± 0.006
323.15 K, x1 = 1 | 836.34 ± 0.11 | 1238.7 ± 0.8 | 0.713 ± 0.006
333.15 K, x1 = 0.1241 | 728.82 ± 0.16 | 1150.5 ± 0.9 | 0.771 ± 0.007
333.15 K, x1 = 0.2414 | 738.39 ± 0.16 | 1153.4 ± 0.9 | 0.745 ± 0.006
333.15 K, x1 = 0.3524 | 748.19 ± 0.15 | 1157 ± 0.9 | 0.722 ± 0.006
333.15 K, x1 = 0.4583 | 758.34 ± 0.15 | 1161 ± 0.9 | 0.703 ± 0.006
333.15 K, x1 = 0.5593 | 768.98 ± 0.14 | 1165.8 ± 0.9 | 0.686 ± 0.006
333.15 K, x1 = 0.6552 | 779.81 ± 0.14 | 1171.3 ± 0.9 | 0.671 ± 0.006
333.15 K, x1 = 0.7575 | 792.63 ± 0.13 | 1178.4 ± 0.8 | 0.657 ± 0.006
333.15 K, x1 = 0.8349 | 803.11 ± 0.13 | 1184.6 ± 0.8 | 0.649 ± 0.006
333.15 K, x1 = 0.9194 | 815.41 ± 0.12 | 1192.5 ± 0.8 | 0.64 ± 0.006
333.15 K, x1 = 1 | 828.21 ± 0.12 | 1201.4 ± 0.8 | 0.636 ± 0.006
343.15 K, x1 = 0.1241 | 721.2 ± 0.3 | – | 0.683 ± 0.006
343.15 K, x1 = 0.2414 | 730.8 ± 0.3 | – | 0.662 ± 0.006
343.15 K, x1 = 0.3524 | 740.5 ± 0.2 | – | 0.643 ± 0.006
343.15 K, x1 = 0.4583 | 750.7 ± 0.2 | – | 0.627 ± 0.006
343.15 K, x1 = 0.5593 | 761.2 ± 0.2 | – | 0.614 ± 0.006
343.15 K, x1 = 0.6552 | 771.9 ± 0.2 | – | 0.602 ± 0.006
343.15 K, x1 = 0.7575 | 784.7 ± 0.2 | – | 0.59 ± 0.006
343.15 K, x1 = 0.8349 | 795.1 ± 0.2 | – | 0.583 ± 0.006
343.15 K, x1 = 0.9194 | 807.2 ± 0.2 | – | 0.576 ± 0.006
343.15 K, x1 = 1 | 819.9 ± 0.2 | – | 0.571 ± 0.006
353.15 K, x1 = 0.1241 | 713.7 ± 0.3 | – | 0.608 ± 0.006
353.15 K, x1 = 0.2414 | 723.2 ± 0.3 | – | 0.591 ± 0.006
353.15 K, x1 = 0.3524 | 732.9 ± 0.2 | – | 0.576 ± 0.006
353.15 K, x1 = 0.4583 | 743 ± 0.2 | – | 0.563 ± 0.006
353.15 K, x1 = 0.5593 | 753.4 ± 0.2 | – | 0.552 ± 0.006
353.15 K, x1 = 0.6552 | 764 ± 0.2 | – | 0.542 ± 0.006
353.15 K, x1 = 0.7575 | 776.7 ± 0.2 | – | 0.532 ± 0.006
353.15 K, x1 = 0.8349 | 787 ± 0.2 | – | 0.526 ± 0.006
353.15 K, x1 = 0.9194 | 799.1 ± 0.2 | – | 0.521 ± 0.006
353.15 K, x1 = 1 | 811.7 ± 0.2 | – | 0.516 ± 0.006
363.15 K, x1 = 0.1241 | 706.1 ± 0.3 | – | 0.546 ± 0.006
363.15 K, x1 = 0.2414 | 715.6 ± 0.3 | – | 0.532 ± 0.006
363.15 K, x1 = 0.3524 | 725.1 ± 0.3 | – | 0.519 ± 0.006
363.15 K, x1 = 0.4583 | 735.2 ± 0.2 | – | 0.508 ± 0.006
363.15 K, x1 = 0.5593 | 745.5 ± 0.2 | – | 0.499 ± 0.005
363.15 K, x1 = 0.6552 | 756 ± 0.2 | – | 0.491 ± 0.005
363.15 K, x1 = 0.7575 | 768.6 ± 0.2 | – | 0.483 ± 0.005
363.15 K, x1 = 0.8349 | 778.9 ± 0.2 | – | 0.478 ± 0.005
363.15 K, x1 = 0.9194 | 790.9 ± 0.2 | – | 0.473 ± 0.005
363.15 K, x1 = 1 | 803.4 ± 0.2 | – | 0.469 ± 0.005
373.15 K, x1 = 0.1241 | 698.5 ± 0.3 | – | 0.493 ± 0.006
373.15 K, x1 = 0.2414 | 707.8 ± 0.3 | – | 0.481 ± 0.005
373.15 K, x1 = 0.3524 | 717.3 ± 0.3 | – | 0.471 ± 0.005
373.15 K, x1 = 0.4583 | 727.2 ± 0.2 | – | 0.461 ± 0.005
373.15 K, x1 = 0.5593 | 737.5 ± 0.2 | – | 0.454 ± 0.005
373.15 K, x1 = 0.6552 | 747.9 ± 0.2 | – | 0.447 ± 0.005
373.15 K, x1 = 0.7575 | 760.5 ± 0.2 | – | 0.44 ± 0.005
373.15 K, x1 = 0.8349 | 770.7 ± 0.2 | – | 0.436 ± 0.005
373.15 K, x1 = 0.9194 | 782.6 ± 0.2 | – | 0.432 ± 0.005
373.15 K, x1 = 1 | 795 ± 0.2 | – | 0.43 ± 0.005

Conditions | surface tension liquid-gas [mN/m]
x1 = 0.1241 | 25.4 ± 0.4
x1 = 0.2414 | 26 ± 0.4
x1 = 0.3524 | 26.3 ± 0.4
x1 = 0.4583 | 26.2 ± 0.4
x1 = 0.5593 | 26.7 ± 0.4
x1 = 0.6552 | 27 ± 0.4
x1 = 0.7575 | 27.5 ± 0.4
x1 = 0.8349 | 27.7 ± 0.4
x1 = 0.9194 | 28.4 ± 0.4
